Measured values: ChEMBL document CHEMBL5291721, “A preclinical secondary pharmacology resource illuminates target-adverse drug reaction associations of marketed drugs” (Nat Commun, 2023)

Assays:
[1] = target: 3',5'-cyclic-AMP phosphodiesterase 4D (Homo sapiens, UniProt Q08499); format: functional
[2] = target: Adenosine receptor A2a (Homo sapiens, UniProt P29274)
[3] = target: Sodium-dependent dopamine transporter (Homo sapiens, UniProt Q01959)
[4] = target: T1, Adenosine receptor A3 (Homo sapiens, UniProt P0DMS8)
T1 sequence (P0DMS8 whole entry): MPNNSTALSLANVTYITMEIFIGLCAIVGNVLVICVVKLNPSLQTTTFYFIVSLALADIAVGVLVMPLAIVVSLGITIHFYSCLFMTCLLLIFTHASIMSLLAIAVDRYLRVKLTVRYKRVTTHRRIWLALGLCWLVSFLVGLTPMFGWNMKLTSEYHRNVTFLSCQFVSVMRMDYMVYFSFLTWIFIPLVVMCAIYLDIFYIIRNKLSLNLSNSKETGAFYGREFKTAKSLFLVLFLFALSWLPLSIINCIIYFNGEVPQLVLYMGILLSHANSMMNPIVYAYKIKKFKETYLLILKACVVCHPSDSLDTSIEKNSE

[5] = target: T2, Cholecystokinin receptor type A (Homo sapiens, UniProt P32238)
T2 sequence (P32238 whole entry): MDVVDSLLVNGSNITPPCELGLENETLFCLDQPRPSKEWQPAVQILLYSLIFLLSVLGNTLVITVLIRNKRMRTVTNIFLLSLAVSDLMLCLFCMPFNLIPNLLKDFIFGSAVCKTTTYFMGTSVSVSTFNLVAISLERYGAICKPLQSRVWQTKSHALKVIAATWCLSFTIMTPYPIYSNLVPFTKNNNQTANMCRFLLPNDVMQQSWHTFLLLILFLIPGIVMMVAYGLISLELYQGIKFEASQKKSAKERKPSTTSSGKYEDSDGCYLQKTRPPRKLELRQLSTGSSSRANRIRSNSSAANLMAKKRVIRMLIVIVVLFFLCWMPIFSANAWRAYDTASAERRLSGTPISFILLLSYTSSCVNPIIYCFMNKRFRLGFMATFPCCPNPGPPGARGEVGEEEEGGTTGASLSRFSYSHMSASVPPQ

[6] = target: T3, Type-1 angiotensin II receptor (Homo sapiens, UniProt P30556)
T3 sequence (P30556 whole entry): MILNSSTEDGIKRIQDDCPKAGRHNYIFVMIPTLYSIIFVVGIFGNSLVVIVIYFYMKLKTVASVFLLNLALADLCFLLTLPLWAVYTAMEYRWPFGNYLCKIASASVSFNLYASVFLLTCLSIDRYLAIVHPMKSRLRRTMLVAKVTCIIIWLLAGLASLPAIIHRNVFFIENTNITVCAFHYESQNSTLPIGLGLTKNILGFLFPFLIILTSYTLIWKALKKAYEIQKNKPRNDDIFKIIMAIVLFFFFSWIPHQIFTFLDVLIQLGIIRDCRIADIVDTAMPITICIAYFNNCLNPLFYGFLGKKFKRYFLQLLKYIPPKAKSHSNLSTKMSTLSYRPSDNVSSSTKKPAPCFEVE

[7] = target: D(3) dopamine receptor (Homo sapiens, UniProt P35462)
Sequence of D(3) dopamine receptor (P35462 whole entry): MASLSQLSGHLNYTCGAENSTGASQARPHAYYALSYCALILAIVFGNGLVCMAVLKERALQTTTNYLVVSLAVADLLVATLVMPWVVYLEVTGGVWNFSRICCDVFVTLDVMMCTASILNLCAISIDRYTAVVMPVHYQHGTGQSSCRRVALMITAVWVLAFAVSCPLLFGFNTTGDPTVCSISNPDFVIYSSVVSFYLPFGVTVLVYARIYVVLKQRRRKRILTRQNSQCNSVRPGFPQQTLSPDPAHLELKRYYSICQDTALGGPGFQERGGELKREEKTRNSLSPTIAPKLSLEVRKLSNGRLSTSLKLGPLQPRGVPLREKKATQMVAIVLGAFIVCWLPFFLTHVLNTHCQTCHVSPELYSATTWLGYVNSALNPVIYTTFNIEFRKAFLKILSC

[8] = target: T4, Alpha-2A adrenergic receptor (Homo sapiens, UniProt P08913); format: functional, cell-based
T4 sequence (P08913 whole entry): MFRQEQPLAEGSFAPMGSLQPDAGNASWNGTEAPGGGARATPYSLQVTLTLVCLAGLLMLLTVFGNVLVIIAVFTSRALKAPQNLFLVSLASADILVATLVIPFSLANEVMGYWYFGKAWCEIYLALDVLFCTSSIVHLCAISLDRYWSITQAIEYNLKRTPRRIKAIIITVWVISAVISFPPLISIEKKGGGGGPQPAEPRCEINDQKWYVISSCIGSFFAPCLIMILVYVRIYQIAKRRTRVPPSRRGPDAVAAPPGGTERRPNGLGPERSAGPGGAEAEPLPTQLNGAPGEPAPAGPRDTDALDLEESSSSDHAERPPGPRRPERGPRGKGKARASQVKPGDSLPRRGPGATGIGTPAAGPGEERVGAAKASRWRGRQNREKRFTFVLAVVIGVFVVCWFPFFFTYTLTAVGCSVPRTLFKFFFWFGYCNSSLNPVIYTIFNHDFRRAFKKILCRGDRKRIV

[9] = target: T5, Endothelin-1 receptor (Homo sapiens, UniProt P25101)
T5 sequence (P25101 whole entry): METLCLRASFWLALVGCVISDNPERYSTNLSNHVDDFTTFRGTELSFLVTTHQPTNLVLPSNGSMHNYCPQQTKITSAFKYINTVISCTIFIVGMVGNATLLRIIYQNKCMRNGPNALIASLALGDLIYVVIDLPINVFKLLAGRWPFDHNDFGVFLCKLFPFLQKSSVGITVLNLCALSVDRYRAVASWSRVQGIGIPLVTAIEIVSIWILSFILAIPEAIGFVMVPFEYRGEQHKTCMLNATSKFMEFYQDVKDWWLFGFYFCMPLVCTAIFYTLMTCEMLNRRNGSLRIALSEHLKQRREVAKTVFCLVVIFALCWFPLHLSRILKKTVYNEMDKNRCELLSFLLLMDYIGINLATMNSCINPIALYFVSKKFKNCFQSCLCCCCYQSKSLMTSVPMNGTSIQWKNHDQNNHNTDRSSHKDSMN

[10] = target: T6, Neuropeptide Y receptor type 1 (Homo sapiens, UniProt P25929)
T6 sequence (P25929 whole entry): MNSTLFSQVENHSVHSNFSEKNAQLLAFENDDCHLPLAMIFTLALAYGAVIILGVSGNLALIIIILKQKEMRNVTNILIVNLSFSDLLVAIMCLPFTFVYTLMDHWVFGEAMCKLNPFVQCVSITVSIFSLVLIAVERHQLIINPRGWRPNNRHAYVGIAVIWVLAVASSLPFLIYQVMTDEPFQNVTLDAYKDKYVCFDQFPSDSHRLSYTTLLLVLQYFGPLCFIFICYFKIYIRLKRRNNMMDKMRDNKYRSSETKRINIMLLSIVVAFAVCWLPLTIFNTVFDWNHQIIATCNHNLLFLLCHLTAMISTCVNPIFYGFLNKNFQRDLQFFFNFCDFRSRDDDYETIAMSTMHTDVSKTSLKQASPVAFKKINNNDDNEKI
Also: assay procedure not described here.

Sequence of 3',5'-cyclic-AMP phosphodiesterase 4D (Q08499 whole entry): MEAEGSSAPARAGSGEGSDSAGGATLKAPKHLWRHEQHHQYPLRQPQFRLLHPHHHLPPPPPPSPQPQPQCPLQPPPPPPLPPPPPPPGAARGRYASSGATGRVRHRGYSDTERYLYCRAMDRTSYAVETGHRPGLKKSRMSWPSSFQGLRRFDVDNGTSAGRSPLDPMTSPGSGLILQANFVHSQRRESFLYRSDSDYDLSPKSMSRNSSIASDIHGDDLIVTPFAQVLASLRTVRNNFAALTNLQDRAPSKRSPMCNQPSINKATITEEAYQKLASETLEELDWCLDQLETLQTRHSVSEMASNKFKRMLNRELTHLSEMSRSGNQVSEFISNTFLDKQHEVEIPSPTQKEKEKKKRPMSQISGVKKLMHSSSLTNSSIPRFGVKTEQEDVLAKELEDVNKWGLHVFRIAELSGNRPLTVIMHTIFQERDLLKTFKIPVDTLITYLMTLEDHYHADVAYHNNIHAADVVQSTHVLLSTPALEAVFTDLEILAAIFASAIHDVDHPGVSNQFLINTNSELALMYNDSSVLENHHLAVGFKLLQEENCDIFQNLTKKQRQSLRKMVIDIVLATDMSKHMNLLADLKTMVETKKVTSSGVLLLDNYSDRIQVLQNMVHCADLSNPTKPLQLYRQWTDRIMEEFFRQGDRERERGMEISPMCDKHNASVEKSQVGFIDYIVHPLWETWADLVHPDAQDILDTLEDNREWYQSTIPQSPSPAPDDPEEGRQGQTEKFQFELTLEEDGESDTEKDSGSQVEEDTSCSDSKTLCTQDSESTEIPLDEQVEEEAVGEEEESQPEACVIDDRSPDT
Sequence of Adenosine receptor A2a (P29274 whole entry): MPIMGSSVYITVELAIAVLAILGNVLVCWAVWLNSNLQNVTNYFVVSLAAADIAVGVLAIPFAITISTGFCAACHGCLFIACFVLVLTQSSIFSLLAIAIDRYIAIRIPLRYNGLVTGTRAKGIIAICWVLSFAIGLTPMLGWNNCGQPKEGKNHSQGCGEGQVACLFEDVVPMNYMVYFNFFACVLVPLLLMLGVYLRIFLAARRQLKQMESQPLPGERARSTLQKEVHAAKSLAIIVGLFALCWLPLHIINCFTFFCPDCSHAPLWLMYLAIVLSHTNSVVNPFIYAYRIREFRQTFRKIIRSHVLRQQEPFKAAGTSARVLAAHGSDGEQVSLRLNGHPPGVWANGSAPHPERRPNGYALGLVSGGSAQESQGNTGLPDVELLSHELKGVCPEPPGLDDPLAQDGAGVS
Sequence of Sodium-dependent dopamine transporter (Q01959 whole entry): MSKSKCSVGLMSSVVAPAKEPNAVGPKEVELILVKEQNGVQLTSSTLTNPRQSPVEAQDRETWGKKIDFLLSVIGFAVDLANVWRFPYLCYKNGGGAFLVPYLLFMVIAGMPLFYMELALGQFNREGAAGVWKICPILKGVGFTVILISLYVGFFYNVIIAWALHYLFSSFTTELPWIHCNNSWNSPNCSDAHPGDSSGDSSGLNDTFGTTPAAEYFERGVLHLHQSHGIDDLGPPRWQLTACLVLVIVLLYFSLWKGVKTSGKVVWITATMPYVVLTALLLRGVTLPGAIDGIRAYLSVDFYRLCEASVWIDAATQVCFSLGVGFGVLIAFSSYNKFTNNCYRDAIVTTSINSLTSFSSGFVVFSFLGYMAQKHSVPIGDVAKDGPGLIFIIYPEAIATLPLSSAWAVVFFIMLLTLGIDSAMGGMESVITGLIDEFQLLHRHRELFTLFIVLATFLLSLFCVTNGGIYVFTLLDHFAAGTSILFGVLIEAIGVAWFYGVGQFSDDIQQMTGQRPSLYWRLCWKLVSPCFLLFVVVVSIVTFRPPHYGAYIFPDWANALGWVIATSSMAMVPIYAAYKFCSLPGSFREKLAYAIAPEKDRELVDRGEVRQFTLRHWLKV

Row | Compound | AC50 [1] [µM] | AC50 [2] [µM] | AC50 [3] [µM] | AC50 [4] [µM] | further results
1 | Cc1cc(C2CCCCC2)n(O)c(=O)c1 [CICLOPIROX] | > 30 | > 30 | > 30 | > 30 | –
2 | O=C(O)Cc1ccccc1Nc1c(Cl)cccc1Cl [DICLOFENAC] | > 30 | > 30 | > 30 | > 3 | AC50 [5]: > 30 µM; AC50 [6]: > 30 µM; AC50 [7]: > 10 µM; AC50 [8]: > 10 µM; AC50 [9]: > 30 µM; AC50 [10]: > 30 µM
3 | O=C1Cc2cc(CCN3CCN(c4nsc5ccccc45)CC3)c(Cl)cc2N1 [ZIPRASIDONE] | > 30 | > 30 | 5.11 | 8.66 | AC50 [5]: > 30 µM; AC50 [6]: > 30 µM; AC50 [9]: > 30 µM; AC50 [10]: > 30 µM
4 | O=C(O)Cc1ccccc1Oc1ccc(Cl)cc1Cl [FENCLOFENAC] | > 10 | > 30 | > 10 | > 30 | AC50 [5]: > 30 µM; AC50 [6]: > 30 µM; AC50 [7]: > 10 µM; AC50 [8]: > 10 µM; AC50 [9]: > 30 µM; AC50 [10]: > 30 µM
5 | CCCc1nc2c(C)cc(-c3nc4ccccc4n3C)cc2n1Cc1ccc(-c2ccccc2C(=O)O)cc1 | 7.1 | > 30 | > 30 | 17.4 | AC50 [5]: 2.43 µM; AC50 [7]: > 30 µM; AC50 [8]: > 30 µM; AC50 [9]: > 30 µM; AC50 [10]: > 30 µM
6 | O=C(O)c1ccccc1 [BENZOIC ACID] | – | – | – | > 30 | –
7 | COC(=O)[C@@H](N)Cc1ccc(O)c(O)c1 [MELEVODOPA] | – | – | – | > 30 | –
8 | CC1(C)O[C@@H]2C[C@H]3[C@@H]4C[C@H](F)C5=CC(=O)C=C[C@]5(C)[C@@]4(F)[C@@H](O)C[C@]3(C)[C@]2(C(=O)CO)O1 [FLUOCINOLONE ACETONIDE] | – | – | – | > 30 | –
9 | CN(C)c1ccc(O)c2c1C[C@H]1C[C@H]3[C@H](N(C)C)C(O)=C(C(N)=O)C(=O)[C@@]3(O)C(O)=C1C2=O [MINOCYCLINE] | – | – | – | > 30 | –
10 | Cc1ccc(C(=O)c2ccc(CC(=O)O)n2C)cc1 [TOLMETIN] | – | – | – | > 30 | –
11 | Cc1ccc(C)c(OCCCC(C)(C)C(=O)O)c1 [GEMFIBROZIL] | > 30 | > 30 | > 10 | > 30 | AC50 [5]: > 30 µM; AC50 [6]: > 30 µM; AC50 [7]: > 10 µM; AC50 [8]: > 10 µM; AC50 [9]: > 30 µM; AC50 [10]: > 30 µM
12 | Cc1cc(=O)oc2cc(O)ccc12 [HYMECROMONE] | – | – | – | > 30 | –
13 | C[Se]CC[C@H](N)C(=O)O [SELENOMETHIONINE] | – | – | – | > 30 | –
14 | Nc1cccc2c1C(=O)N(C1CCC(=O)NC1=O)C2=O (centres undefined) [POMALIDOMIDE] | – | – | – | > 30 | –
15 | N=C(N)N/N=C/c1c(Cl)cccc1Cl [GUANABENZ] | – | – | – | > 30 | –
16 | CCC1=C[C@@H]2CN(C1)Cc1c([nH]c3ccccc13)[C@@](C(=O)OC)(c1cc3c(cc1OC)N(C)[C@H]1[C@@](O)(C(=O)OC)[C@H](OC(C)=O)[C@]4(CC)C=CCN5CC[C@]31[C@@H]54)C2 [VINORELBINE] | – | – | – | > 30 | –
17 | O=C(O)CN(CCN(CC(=O)O)CC(=O)O)CCN(CC(=O)O)CC(=O)O [PENTETIC ACID] | – | – | – | > 30 | –
18 | CC[C@@H]1C[C@]1(NC(=O)[C@@H]1C[C@@H]2CN1C(=O)[C@H](C(C)(C)C)NC(=O)OCC(C)(C)CCCCc1cccc3c1CN(C3)C(=O)O2)C(=O)NS(=O)(=O)C1CC1 | – | – | – | 12.6 | –
19 | COc1ccc2[nH]c([S+]([O-])Cc3ncc(C)c(OC)c3C)nc2c1 (centres undefined) [OMEPRAZOLE] | – | – | – | 2.88 | –
